In patent publication US8173387B2, “Method of examining chemical using gene-disrupted strain” (priority 2003, dated 2012):

Tests used:
Assay type in all cases: cell-based, Saccharomyces cerevisiae
[1] = tested on: gene-disrupted strain DEL016 (YCR028C) transformed with a plasmid p-YPL171C; experiment: promoter assay (GFP reporter), Example 2; conditions: GFP fluorescence 4 hours after loading, parent strain BY4743
Protocol: (§1) In a gene-disrupted strain, a growing rate becomes small so much, or medium components in which the strain can be grown are different in some cases, depending on a disrupted gene. Then, in the present experiment studying a host cell of a promoter assay method, in view of easy comparison with a control experiment, among gene-disrupted strains obtained as the result of Example 1, a few strains which have sensitivity to many chemicals and are grown by the same procedure as that of a parent strain were selected. Selected gene-disrupted strains are 8 strains of DEL000, DEL002, DEL011, DEL014, DEL016, DEL019, DEL022 and DEL025 in Table 7. Further, as a control, a parent strain, BY4743 was used.
(§2) A competent cell of each of a parent strain of a gene-disrupted strain and selected gene-disrupted strains was prepared. This competent cell was transformed using two kinds of prepared plasmids for promoter assay, p-YBR072W (in which GFP was connected understream of a promoter of YBR072W) and p-YPL171C (in which GFP was connected downstream of a promoter of YPL171C).
(§3) The resulting transformant was grown to the steady state by shaking-culturing on a SD medium (histidine, leucine) at 25° C. The transformant in the steady state was diluted 500-fold with the same medium, shaking-cultured at 25° C. for 15 hours and, after it was confirmed that an absorbance at 600 nm was 0.2 to 0.5 as a logarithmic growth phase, chemicals having different concentrations were loaded. After loading of chemicals, fluorescence of cells which had been cultured for 4 hours was measured using a flow cytometer (FITC filter, EPICS XL-MCL, Bechmancoulter), and this was adopted as an expression amount of GFP (green fluorescence protein) which is a marker gene. A fluorescence intensity of 10000 cells was measured with a flow cytometer by one measurement and an average of fluorescence intensities of all cells was obtained, and was adopted as a measured value. Similarly, a fluorescence intensity of a cell to which a chemical had not been loaded was obtained, and results are shown as a fluorescence intensity ratio.

[2] = tested on: gene-disrupted strain DEL011 (YGL240W) transformed with a plasmid p-YPL171C; experiment: promoter assay (GFP reporter), Example 2; conditions: GFP fluorescence 4 hours after loading, parent strain BY4743
Protocol: as §1, §2, §3

[3] = tested on: homozygous diploid of gene-disrupted strain DEL006 (YHR039C-A) transformed with a plasmid p-YPL171C; experiment: promoter assay (GFP reporter), Example 3; conditions: W303 background
From the text: (§4) In order to prepare a gene-disrupted strain transformation cassette, genes having chemical sensitivity; YPR036W(DEL000), YDL151C(DEL001), YGL026C(DEL003), YHR039C-A(DEL006), YKL080W(DEL007), YLR447C(DEL008), YGR006W(DEL012), YGR105W(DRL013), YJR104C(DEL014), YGL206C(DEL018), YIL036W(DEL019), YKL119C(DEL020), YLR226W(DEL022) and YLR311C(DEL025) in Table 7 were selected, and each gene was replaced with a transformation marker such as kanamycin resistance. As primers for performing PCT amplification, a N-terminal side (ORF(upper)) and a C-terminal side (ORF(lower)) in each ORF were used. A length of a sequence (ORF(upper) and ORF(lower)) of a primer homologues with ORF was 46 or 50 bp.
(§5) A W303 a mating type (ATCC200903) and a W303α mating type (ATCC201238) in which the same gene was gene disruption-manipulated were mated by a mating procedure (Yeast Gene Experimental Manual: Maruzen Co., Ltd., p 83-92) to prepare homozygous diploids. Separately, mating of a W303a mating type, and a non-gene-disrupted W303α type was performed by the similar procedure to prepare heterozygous diploids.
(§6) By such the procedure, homozygous diploids of DEL000, DEL001, DEL003, DEL006, DEL007, DEL008, DEL012, DEL013, DEL014, DEL018, DEL019, DEL020, DEL022 and DEL025 in Table 7 were prepared. In addition, heterozygous diploids in which DEL006, DEL014 and DEL 022 were mated with a non-gene-disrupted strain (hereafter, referred to as DEL006 heterozygous diploid, DEL 014 heterozygous diploid, DEL022 heterozygous diploid) and, further, a heterozygous diploid in which DEL000 and DEL014 were mated (hereafter, referred to as DEL000/014 heterozygous diploid) were prepared.
(§7) Competent cells of W303 ATCC201239 (MATa/MATα leu2-3/leu2-3 leu2-112/leu2-112 trp1-1/trp1-1 ura3-1/ura3-1 his 3-11/his3-11 his3-15/his3-15 ade2-1/ade2-1 can1-100/can1-100) which is a parent strain of gene-disrupted strains, and each of prepared gene-disrupted strains were prepared. The competent cells were transformed using two kind of prepared plasmid for promoter assay, p-YBR072W (in which GFP is connected downstream of a promoter of YBR072W) and p-YPL171C (in which GFP is connected downstream of a promoter of YPL171C).
(§8) The resulting transformant was grown to the steady state by shaking-culturing on a SD medium (adenine, hystidine, triptophan, leucine) at 25° C. The transformant in the steady state was diluted 500-fold with the same medium, shaking-cultured at 25° C. for 15 hours and, after it was confirmed that an absorbance at 600 nm was 0.2 to 0.5 as a logarithmic growth phase, chemicals having different concentrations were loaded. After loading of chemicals, fluorescence of cells which had been cultured for 4 hours was measured using a flow cytometer (FITC filter, EPICS XL-MCL, Bechmancoulter), and this was adopted as an expression amount of GFP (green fluorescence protein) which is a marker gene. A fluorescence intensity of 10000 cells was measured with a flow cytometer by one measurement and an average of fluorescence intensities of all cells was obtained, and was adopted as a measured value. Similarly, a fluorescence intensity of a cell to which a chemical had not been loaded was obtained, and results are shown as difference in a fluorescence intensity.

[4] = tested on: homozygous diploid of gene-disrupted strain DEL003 (YGL026C) transformed with a plasmid p-YPL171C; experiment: promoter assay (GFP reporter), Example 3; conditions: W303 background
From the text: as §4, §5, §6, §7, §8

[5] = tested on: homozygous diploid of gene-disrupted strain DEL022 (YLR226W) transformed with a plasmid p-YPL171C; experiment: promoter assay (GFP reporter), Example 3; conditions: W303 background
From the text: as §4, §5, §6, §7, §8

[6] = tested on: homozygous diploid of gene-disrupted strain DEL014 (YJR104C) transformed with a plasmid p-YPL171C; experiment: promoter assay (GFP reporter), Example 3; conditions: W303 background
From the text: as §4, §5, §6, §7, §8

[7] = tested on: heterozygous diploid DEL000/014 transformed with a plasmid p-YPL171C; experiment: promoter assay (GFP reporter), Example 3; conditions: heterozygous diploid DEL000/014, p-YPL171C, W303 background
From the text: as §4, §5, §6, §7, §8

[8] = tested on: homozygous diploid of gene-disrupted strain DEL008 (YLR447C) transformed with a plasmid p-YPL171C; experiment: promoter assay (GFP reporter), Example 3; conditions: W303 background
From the text: as §4, §5, §6, §7, §8

[9] = tested on: gene-disrupted strain DEL016 (YCR028C) transformed with a plasmid p-YBR072W; experiment: promoter assay (GFP reporter), Example 2; conditions: GFP fluorescence 4 hours after loading, parent strain BY4743
Protocol: as §1, §2, §3

[10] = tested on: gene-disrupted strain DEL014 (YJR104C) transformed with a plasmid p-YBR072W; experiment: promoter assay (GFP reporter), Example 2; conditions: GFP fluorescence 4 hours after loading, parent strain BY4743
Protocol: as §1, §2, §3

[11] = tested on: gene-disrupted strain DEL011 (YGL240W) transformed with a plasmid p-YBR072W; experiment: promoter assay (GFP reporter), Example 2; conditions: GFP fluorescence 4 hours after loading, parent strain BY4743
Protocol: as §1, §2, §3

[12] = tested on: gene-disrupted strain DEL019 (YIL036W) transformed with a plasmid p-YBR072W; experiment: promoter assay (GFP reporter), Example 2; conditions: strain printed DEL019025, p-YBR072W, GFP fluorescence 4 hours after loading, parent strain BY4743
Protocol: as §1, §2, §3

[13] = tested on: gene-disrupted strain DEL025 (YLR311C) transformed with a plasmid p-YBR072W; experiment: promoter assay (GFP reporter), Example 2; conditions: strain printed DEL, p-YBR072W, GFP fluorescence 4 hours after loading, parent strain BY4743
Protocol: as §1, §2, §3

[14] = tested on: gene-disrupted strain DEL002 (YDR027C) transformed with a plasmid p-YBR072W; experiment: promoter assay (GFP reporter), Example 2; conditions: GFP fluorescence 4 hours after loading, parent strain BY4743
Protocol: as §1, §2, §3

[15] = tested on: homozygous diploid of gene-disrupted strain DEL007 (YKL080W) transformed with a plasmid p-YPL171C; experiment: promoter assay (GFP reporter), Example 3; conditions: W303 background
From the text: as §4, §5, §6, §7, §8

[16] = tested on: homozygous diploid of gene-disrupted strain DEL001 (YDL151C) transformed with a plasmid p-YPL171C; experiment: promoter assay (GFP reporter), Example 3; conditions: W303 background
From the text: as §4, §5, §6, §7, §8

[17] = tested on: heterozygous diploid of gene-disrupted strain DEL006 (YHR039C-A) transformed with a plasmid p-YPL171C; experiment: promoter assay (GFP reporter), Example 3; conditions: W303 background
From the text: as §4, §5, §6, §7, §8

[18] = tested on: homozygous diploid of gene-disrupted strain DEL020 (YKL119C) transformed with a plasmid p-YPL171C; experiment: promoter assay (GFP reporter), Example 3; conditions: DEL0020 homozygous diploid, W303 background
From the text: as §4, §5, §6, §7, §8

**Q.** How did the “concentration at which the strain responded, as fraction of a concentration of a parent strain” value [1] turn out when `[Cl][Hg][Cl]` [mercuric chloride] was run?
**A.** Its value is 1/3.

**Q.** What about the “concentration at which the strain responded, as fraction of a concentration of a parent strain” value [2] of the same compound?
**A.** The value was 1/10.

**Q.** Which results are given for `O=[As][O-].[Na+]` [sodium metaarsenite]?
**A.** concentration at which sensitivity is shown, as fraction of a concentration of a gene-non-disrupted strain [3]: 1/30; concentration at which sensitivity is shown, as fraction of a concentration of a gene-non-disrupted strain [4]: 1/3; concentration at which sensitivity is shown, as fraction of a concentration of a gene-non-disrupted strain [5]: 1/3; concentration at which sensitivity is shown, as fraction of a concentration of a gene-non-disrupted strain [6]: 1/30; concentration at which sensitivity is shown, as fraction of a concentration of a gene-non-disrupted strain [7]: 1/30; concentration at which sensitivity is shown, as fraction of a concentration of a gene-non-disrupted strain [8]: 1/3; concentration at which the strain responded, as fraction of a concentration of a parent strain [9]: 1/3; concentration at which the strain responded, as fraction of a concentration of a parent strain [10]: 1/3000; concentration at which the strain responded, as fraction of a concentration of a parent strain [11]: 1/10; concentration at which the strain responded, as fraction of a concentration of a parent strain [2]: 1/3

**Q.** How did the “concentration at which the strain responded, as fraction of a concentration of a parent strain” value [9] turn out when `[Cl][Cd][Cl]` [cadmium chloride] was run?
**A.** Its value is 1/3.

**Q.** What about the “concentration at which the strain responded, as fraction of a concentration of a parent strain” value [12] of the same compound?
**A.** The value was 1/3.

**Q.** And the “concentration at which the strain responded, as fraction of a concentration of a parent strain” value [13]?
**A.** The value was 1/3.

**Q.** And the “concentration at which the strain responded, as fraction of a concentration of a parent strain” value [14]?
**A.** The value was 1/3.

**Q.** What about the “concentration at which the strain responded, as fraction of a concentration of a parent strain” value [11] of the same compound?
**A.** Its value is 1/3.

**Q.** For `CN(C)C(=S)SSC(=S)N(C)C` [thiuram], which “concentration at which sensitivity is shown, as fraction of a concentration of a gene-non-disrupted strain” value [3] is on record?
**A.** Its value is 1/10.

**Q.** And the “concentration at which sensitivity is shown, as fraction of a concentration of a gene-non-disrupted strain” value [5]?
**A.** The value was 1/1000.

**Q.** And the “concentration at which sensitivity is shown, as fraction of a concentration of a gene-non-disrupted strain” value [15]?
**A.** The value was 1/1000.

**Q.** What about the “concentration at which sensitivity is shown, as fraction of a concentration of a gene-non-disrupted strain” value [16] of the same compound?
**A.** Its value is 1/3.

**Q.** What about the “concentration at which sensitivity is shown, as fraction of a concentration of a gene-non-disrupted strain” value [17] of the same compound?
**A.** The value was 1/10.

**Q.** And the “concentration at which sensitivity is shown, as fraction of a concentration of a gene-non-disrupted strain” value [18]?
**A.** Its value is 1/3.
